Tests used:
[1] = test system: human subdermal diploid fibroblasts; experiment: Differentiation of human subdermal fibroblasts into myofibroblasts (cell square, unstriped muscle actin, vinculin contacts); type: cell-based
Text: Myofibroblasts emerge as result of normal fibroblast differentiation and in comparison to them have bigger size, better adherence to the substrate (in vivo to extracellular matrix, in vitro to plastic), different cytoskeleton structure and contractive activity.
Main myofibroblast marker is unstriped muscle actin form, which mediates its contraction activity and almost never can be found in normal fibroblasts.
Better adherence to the substrate is also a characteristic feature of myofibroblasts, it promotes its movement into wound and brace of wound edges. In our experiments we estimated number of tight contacts between cell and substrate, containing special focal adhesion protein vinculin.
It is important to notice that short incubation with SkQ1 for 1-2 hours is enough for induction of this transformation, and further a population of myofibroblasts is supported in a media without SkQ1 for at least 4-6 weeks.

[2] = test system: fibroblast culture; experiment: IF staining of cytoskeleton and fibronectin in fibroblast culture treated with SkQ1; type: cell-based, human
Text: It points to contraction activity and cell movement enhancement. […] This was done by IF staining of actin and myosin in fibroblast stress-fibrils, treated with SkQ1 and from control group.
Further on we analyzed a consistence of main extracellular matrix protein fibronectin in fibroblast culture, treated with SkQ1. […] Fibronectinic matrix forms as a result of both cell secretion and reorganization of matrix components present in culture in formation of serum. Fibronectin produced by fibroblasts has certain structural alterity that gives a possibility to construct selective antibodies.

[3] = test system: human fibroblast monolayer; experiment: Human fibroblast monolayer damage, model of wound in vitro; type: cell-based
Text: Human fibroblast monolayer damage—is a model of wound in vitro, as fibroblasts are basement of connective tissue, which structure falls with any injury or damage. It is known that fibroblasts are one of the first to enter wounded area that considerably determines its healing. Fibroblast monolayer was damaged with sterile scalpel; as a result a 2000 micron wide distant break appeared. Ability of fibroblasts to heal the wound was estimated by length of cell migration zone, appeared during certain time period (1 day) inside the wound. Cell migration zone length depends directly on healing speed of artificially given wound. Results of several different SkQ1 concentrations test are shown on FIG. 4.

[4] = test system: LAR epithelial cell line; experiment: Epithelial layer movement into the wound in vitro; type: cell-based
Experimental: Along with fibroblast movement and contraction, in wound healing a formation plays an important role of new epithelial layers in the wound—so called reepithalialization. Study on this process in vitro was carried out using LAR epithelial cell line. […] Ability of cell to form tight “islands” and single epithelial layer also weren't disturbed. Studies on expression of intracellular contact protein E-cadherin specific for epithelium confirmed epithelial structure stability in presence of SkQ1. […] This effect was studied in vitro using the same mode that was used in fibroblast studies. […] Unlike fibroblasts, epithelial cells moved into the wound in a single layer with all characteristic morphology and intracellular contacts.

## CC1=C(C)C(=O)C(CCCCCCCCCC[P+](c2ccccc2)(c2ccccc2)c2ccccc2)=CC1=O.[Br-] [SkQ1]
[1]
  incubation time enough for induction of transformation into myofibroblasts: 1 to 2 h
[1]; SkQ1 20 nM, whole population
  average square value increase: increases more then two-three fold
[1]; SkQ1 treated versus control cells, FIG. 3
  number of vinculin-containing contacts per cell: increase of number of contacts per cell
[1]; SkQ1 treatment, FIG. 2
  average square of significant group of cells over control value (cell size distribution): 5-6 fold
[1]; after SkQ1 treatment
  unstriped muscle actin form (IF staining) in giant cells versus normal fibroblasts: heavy increase
[1]; after short incubation with SkQ1
  time myofibroblast population is supported in media without SkQ1: 4-6 weeks
[2]; IF staining of actin and myosin
  cell skeleton reorganization, stress-fibrils: active cell skeleton reorganization with stress-fibril enhancement
[2]; monolayer areas and cell migration zone
  fibronectin level (IF staining): significant increase
[2]; selective antibodies to fibroblast fibronectin
  intracellular expression of fibronectin: raises
[3]; 1 day, 2000 micron wide break, FIG. 4
  length of cell migration zone inside the wound: short period incubation with SkQ1 caused effect, which continued for a long time even without SkQ1
[3]; 24 hours, FIG. 5
  number of cell rows entered to the wound: Injury healing acceleration
[4]
  actinic stress-fibrils in the cells: significantly raised
  cell movement into the wound: significantly accelerates cell movement into the wound
  morphological changes of epithelial cells: didn't cause significant morphological changes
  persistence of effect on epithelial cells after drug withdrawal: continued long after drug withdrawal

Reference: patent US9427444B2, “Pharmaceutical and cosmetic compositions for accelerated healing of wounds and other surface damages” (MITOTECH SA, priority 2007, dated 2016)
